Test results as given in patent publication US20230372498A1, “PLK1 SELECTIVE DEGRADATION INDUCING COMPOUND” (UPPTHERA, priority 2020, published 2023).

Target: T1, PLK1 (Homo sapiens, UniProt P53350)
T1 construct: endogenous in cells; host or cells: HeLa
Assay: PLK1 protein degradation in HeLa cells, Western blotting (PLK1/GAPDH ratio)
Format: cell-based
Settings: 6 hours compound incubation; for DC50: measured only if the grade of Dmax is A or B; for Dmax: thymidine block and release, 10 points three-fold from 3 μM, PLK1 to GAPDH ratio, read-out: Dmax
How it was run: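 PLK1 level measured by Western blot as PLK1/GAPDH in HeLa lysates (15 μg protein per lane). Cells were blocked with 2 mM thymidine 24 h, released 4 h, and exposed 6 h to compound, 10 concentrations, 3-fold steps, top 3 μM.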

T1 sequence (P53350 whole entry): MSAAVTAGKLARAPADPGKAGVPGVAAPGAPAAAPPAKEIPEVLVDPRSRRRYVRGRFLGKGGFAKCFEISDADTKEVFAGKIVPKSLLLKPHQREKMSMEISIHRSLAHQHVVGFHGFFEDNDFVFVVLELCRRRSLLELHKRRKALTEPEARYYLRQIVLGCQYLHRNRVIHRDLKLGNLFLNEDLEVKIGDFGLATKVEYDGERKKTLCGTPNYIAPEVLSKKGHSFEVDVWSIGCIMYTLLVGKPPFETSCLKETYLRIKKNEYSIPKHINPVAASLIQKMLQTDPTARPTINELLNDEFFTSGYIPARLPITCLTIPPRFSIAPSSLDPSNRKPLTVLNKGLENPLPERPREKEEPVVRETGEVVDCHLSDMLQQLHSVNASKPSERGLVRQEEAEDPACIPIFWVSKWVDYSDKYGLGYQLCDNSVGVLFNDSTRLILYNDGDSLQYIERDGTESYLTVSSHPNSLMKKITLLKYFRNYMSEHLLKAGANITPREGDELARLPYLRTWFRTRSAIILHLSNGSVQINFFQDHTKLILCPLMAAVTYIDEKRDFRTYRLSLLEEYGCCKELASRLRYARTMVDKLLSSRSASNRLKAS

Structure (SMILES) | DC50 [nM] | Dmax [%]
CN1C(=O)C(F)(F)CN(C2CCCC2)c2nc(Nc3ccc(C(=O)NC4CCN(C(=O)CCN5CCN(c6cccc7c6C(=O)N(C6CCC(=O)NC6=O)C7=O)CC5)CC4)cc3)ncc21 (centres unmarked) [Compound 129, 4-((9-cyclopentyl-7,7-difluoro-5-methyl-6-oxo-6,7,8,9-tetrahydro-5H-pyrimido[4,5-b][1,4]diazepin-2-yl)amino)-N-(1-(3-(4-(2-(2,6-dioxopiperidin-3-yl)-1,3-dioxoisoindolin-4-yl)piperazin-1-yl)propanoyl)piperidin-4-yl)benzamide] | ≤ 50 | ≥ 80
COc1cc(C(=O)N[C@H]2CCN(C(=O)CN3CCN(c4cccc5c4C(=O)N(C4CCC(=O)NC4=O)C5=O)CC3)C2)c(F)cc1Nc1ncc2c(n1)N(C1CCCC1)CC(F)(F)C(=O)N2C (some centres unmarked) [Compound 130] | ≤ 50 | ≥ 80
COc1cc(C(=O)N[C@H]2CCN(C(=O)CCN3CCN(c4cccc5c4C(=O)N(C4CCC(=O)NC4=O)C5=O)CC3)C2)c(F)cc1Nc1ncc2c(n1)N(C1CCCC1)CC(F)(F)C(=O)N2C (stereo partly drawn) [Compound 131, 4-((9-cyclopentyl-7,7-difluoro-5-methyl-6-oxo-6,7,8,9-tetrahydro-5H-pyrimido[4,5-b][1,4]diazepin-2-yl)amino)-N-((3S)-1-(3-(4-(2-(2,6-dioxopiperidin-3-yl)-1,3-dioxoisoindolin-4-yl)piperazin-1-yl)propanoyl)pyrrolidin-3-yl)-2-fluoro-5-methoxybenzamide] | ≤ 50 | ≥ 80
COc1cc(C(=O)N[C@@H]2CCN(C(=O)CCN3CCN(c4cccc5c4C(=O)N(C4CCC(=O)NC4=O)C5=O)CC3)C2)c(F)cc1Nc1ncc2c(n1)N(C1CCCC1)CC(F)(F)C(=O)N2C (stereo partly drawn) [Compound 132, 4-((9-cyclopentyl-7,7-difluoro-5-methyl-6-oxo-6,7,8,9-tetrahydro-5H-pyrimido[4,5-b][1,4]diazepin-2-yl)amino)-N-((3R)-1-(3-(4-(2-(2,6-dioxopiperidin-3-yl)-1,3-dioxoisoindolin-4-yl)piperazin-1-yl)propanoyl)pyrrolidin-3-yl)-2-fluoro-5-methoxybenzamide] | ≤ 50 | ≥ 80
COc1cc(C(=O)N[C@@H]2CCN(C(=O)CCCN3CCN(c4cccc5c4C(=O)N(C4CCC(=O)NC4=O)C5=O)CC3)C2)c(F)cc1Nc1ncc2c(n1)N(C1CCCC1)CC(F)(F)C(=O)N2C (stereo partly drawn) [Compound 133, 4-((9-cyclopentyl-7,7-difluoro-5-methyl-6-oxo-6,7,8,9-tetrahydro-5H-pyrimido[4,5-b][1,4]diazepin-2-yl)amino)-N-((3R)-1-(4-(4-(2-(2,6-dioxopiperidin-3-yl)-1,3-dioxoisoindolin-4-yl)piperazin-1-yl)butanoyl)pyrrolidin-3-yl)-2-fluoro-5-methoxybenzamide] | ≤ 50 | ≥ 80
COc1cc(C(=O)N[C@@H]2CCN(C(=O)CCCCN3CCN(c4cccc5c4C(=O)N(C4CCC(=O)NC4=O)C5=O)CC3)C2)c(F)cc1Nc1ncc2c(n1)N(C1CCCC1)CC(F)(F)C(=O)N2C (stereo partly drawn) [Compound 134, 4-((9-cyclopentyl-7,7-difluoro-5-methyl-6-oxo-6,7,8,9-tetrahydro-5H-pyrimido[4,5-b][1,4]diazepin-2-yl)amino)-N-((3R)-1-(5-(4-(2-(2,6-dioxopiperidin-3-yl)-1,3-dioxoisoindolin-4-yl)piperazin-1-yl)pentanoyl)pyrrolidin-3-yl)-2-fluoro-5-methoxybenzamide] | ≤ 50 | ≥ 80
COc1cc(C(=O)N[C@H]2CCN(C(=O)CN3CCN(c4ccc5c(c4)C(=O)N(C4CCC(=O)NC4=O)C5=O)CC3)C2)c(F)cc1Nc1ncc2c(n1)N(C1CCCC1)CC(F)(F)C(=O)N2C (stereo partly drawn) [Compound 135, 4-((9-cyclopentyl-7,7-difluoro-5-methyl-6-oxo-6,7,8,9-tetrahydro-5H-pyrimido[4,5-b][1,4]diazepin-2-yl)amino)-N-((3S)-1-(2-(4-(2-(2,6-dioxopiperidin-3-yl)-1,3-dioxoisoindolin-5-yl)piperazin-1-yl)acetyl)pyrrolidin-3-yl)-2-fluoro-5-methoxybenzamide] | ≤ 50 | ≥ 80
COc1cc(C(=O)N[C@H]2CCN(C(=O)CCN3CCN(c4ccc5c(c4)C(=O)N(C4CCC(=O)NC4=O)C5=O)CC3)C2)c(F)cc1Nc1ncc2c(n1)N(C1CCCC1)CC(F)(F)C(=O)N2C (stereo partly drawn) [Compound 136, 4-((9-cyclopentyl-7,7-difluoro-5-methyl-6-oxo-6,7,8,9-tetrahydro-5H-pyrimido[4,5-b][1,4]diazepin-2-yl)amino)-N-((3S)-1-(3-(4-(2-(2,6-dioxopiperidin-3-yl)-1,3-dioxoisoindolin-5-yl)piperazin-1-yl)propanoyl)pyrrolidin-3-yl)-2-fluoro-5-methoxybenzamide] | ≤ 50 | ≥ 80
COc1cc(C(=O)N[C@@H]2CCN(C(=O)CCN3CCN(c4ccc5c(c4)C(=O)N(C4CCC(=O)NC4=O)C5=O)CC3)C2)c(F)cc1Nc1ncc2c(n1)N(C1CCCC1)CC(F)(F)C(=O)N2C (stereo partly drawn) [Compound 137, 4-((9-cyclopentyl-7,7-difluoro-5-methyl-6-oxo-6,7,8,9-tetrahydro-5H-pyrimido[4,5-b][1,4]diazepin-2-yl)amino)-N-((3R)-1-(3-(4-(2-(2,6-dioxopiperidin-3-yl)-1,3-dioxoisoindolin-5-yl)piperazin-1-yl)propanoyl)pyrrolidin-3-yl)-2-fluoro-5-methoxybenzamide] | ≤ 50 | ≥ 80
COc1cc(C(=O)N[C@@H]2CCN(C(=O)CCCN3CCN(c4ccc5c(c4)C(=O)N(C4CCC(=O)NC4=O)C5=O)CC3)C2)c(F)cc1Nc1ncc2c(n1)N(C1CCCC1)CC(F)(F)C(=O)N2C (stereo partly drawn) [Compound 138, 4-((9-cyclopentyl-7,7-difluoro-5-methyl-6-oxo-6,7,8,9-tetrahydro-5H-pyrimido[4,5-b][1,4]diazepin-2-yl)amino)-N-((3R)-1-(4-(4-(2-(2,6-dioxopiperidin-3-yl)-1,3-dioxoisoindolin-5-yl)piperazin-1-yl)butanoyl)pyrrolidin-3-yl)-2-fluoro-5-methoxybenzamide] | ≤ 50 | ≥ 80
COc1cc(C(=O)N[C@@H]2CCN(C(=O)CCCCN3CCN(c4ccc5c(c4)C(=O)N(C4CCC(=O)NC4=O)C5=O)CC3)C2)c(F)cc1Nc1ncc2c(n1)N(C1CCCC1)CC(F)(F)C(=O)N2C (stereo partly drawn) [Compound 139, 4-((9-cyclopentyl-7,7-difluoro-5-methyl-6-oxo-6,7,8,9-tetrahydro-5H-pyrimido[4,5-b][1,4]diazepin-2-yl)amino)-N-((3R)-1-(5-(4-(2-(2,6-dioxopiperidin-3-yl)-1,3-dioxoisoindolin-5-yl)piperazin-1-yl)pentanoyl)pyrrolidin-3-yl)-2-fluoro-5-methoxybenzamide] | ≤ 50 | ≥ 80
COc1cc(C(=O)N[C@H]2CCN(C(=O)CCC(=O)N3CCN(c4cccc5c4C(=O)N(C4CCC(=O)NC4=O)C5=O)CC3)C2)c(F)cc1Nc1ncc2c(n1)N(C1CCCC1)CC(F)(F)C(=O)N2C (stereo partly drawn) [Compound 140, 4-((9-cyclopentyl-7,7-difluoro-5-methyl-6-oxo-6,7,8,9-tetrahydro-5H-pyrimido[4,5-b][1,4]diazepin-2-yl)amino)-N-((3S)-1-(4-(4-(2-(2,6-dioxopiperidin-3-yl)-1,3-dioxoisoindolin-4-yl)piperazin-1-yl)-4-oxobutanoyl)pyrrolidin-3-yl)-2-fluoro-5-methoxybenzamide] | ≤ 50 | ≥ 80
COc1cc(C(=O)N[C@H]2CCN(C(=O)CCC(=O)N3CCN(c4cccc5c4C(=O)N(C4CCC(=O)NC4=O)C5=O)CC3)C2)ccc1Nc1ncc2c(n1)N(C1CCCC1)CC(F)(F)C(=O)N2C (stereo partly drawn) [Compound 141, 4-((9-cyclopentyl-7,7-difluoro-5-methyl-6-oxo-6,7,8,9-tetrahydro-5H-pyrimido[4,5-b][1,4]diazepin-2-yl)amino)-N-((3S)-1-(4-(4-(2-(2,6-dioxopiperidin-3-yl)-1,3-dioxoisoindolin-4-yl)piperazin-1-yl)-4-oxobutanoyl)pyrrolidin-3-yl)-3-methoxybenzamide] | ≤ 50 | ≥ 80
CN1C(=O)C(F)(F)CN(C2CCCC2)c2nc(Nc3ccc(C(=O)N[C@H]4CCN(C(=O)CCC(=O)N5CCN(c6cccc7c6C(=O)N(C6CCC(=O)NC6=O)C7=O)CC5)C4)cc3)ncc21 (stereo partly drawn) [Compound 142, 4-((9-cyclopentyl-7,7-difluoro-5-methyl-6-oxo-6,7,8,9-tetrahydro-5H-pyrimido[4,5-b][1,4]diazepin-2-yl)amino)-N-((3S)-1-(4-(4-(2-(2,6-dioxopiperidin-3-yl)-1,3-dioxoisoindolin-4-yl)piperazin-1-yl)-4-oxobutanoyl)pyrrolidin-3-yl)benzamide] | ≤ 500 | 60 to 80
COc1cc(C(=O)N[C@H]2CCN(C(=O)CCCC(=O)N3CCN(c4cccc5c4C(=O)N(C4CCC(=O)NC4=O)C5=O)CC3)C2)c(F)cc1Nc1ncc2c(n1)N(C1CCCC1)CC(F)(F)C(=O)N2C (stereo partly drawn) [Compound 143, 4-((9-cyclopentyl-7,7-difluoro-5-methyl-6-oxo-6,7,8,9-tetrahydro-5H-pyrimido[4,5-b][1,4]diazepin-2-yl)amino)-N-((3S)-1-(5-(4-(2-(2,6-dioxopiperidin-3-yl)-1,3-dioxoisoindolin-4-yl)piperazin-1-yl)-5-oxopentanoyl)pyrrolidin-3-yl)-2-fluoro-5-methoxybenzamide] | ≤ 500 | 60 to 80
COc1cc(C(=O)N[C@H]2CCN(C(=O)CCC(=O)N3CCN(c4ccc5c(c4)C(=O)N(C4CCC(=O)NC4=O)C5=O)CC3)C2)c(F)cc1Nc1ncc2c(n1)N(C1CCCC1)CC(F)(F)C(=O)N2C (stereo partly drawn) [Compound 144, 4-((9-cyclopentyl-7,7-difluoro-5-methyl-6-oxo-6,7,8,9-tetrahydro-5H-pyrimido[4,5-b][1,4]diazepin-2-yl)amino)-N-((3S)-1-(4-(4-(2-(2,6-dioxopiperidin-3-yl)-1,3-dioxoisoindolin-5-yl)piperazin-1-yl)-4-oxobutanoyl)pyrrolidin-3-yl)-2-fluoro-5-methoxybenzamide] | ≤ 50 | ≥ 80
